From patent US20230053688A1, “METHODS TO ALTER LATENCY IN EBV+ MALIGNANCIES” (Cornell University, priority 2020, published 2023)
Where a name gives a salt, the structure may show the parent alone. Read-outs that look alike come from different tables or passages of the source.

System: LMP1 expression in Kem I cells
Experiment: microbe, parasite or virus in culture
Format: cell-based, EBV
Details: for Average LMP1 Fold Increase / Replicate 1-LMP1 Fold Increase / Replicate 2-LMP1 Fold Increase: Kem I cells, 48 hours; for fold induction at 2.5 µM: human gammaherpesvirus 4, 48 h
[1] = dose 2.5 uM, LMP1 transcript by in-well qRT-PCR, average of the two replicates
[2] = dose 2.5 uM, LMP1 transcript by in-well qRT-PCR, screen replicate 1
[3] = dose 2.5 uM, LMP1 transcript by in-well qRT-PCR, screen replicate 2
[4] = 2.5 uM, average of replicates 1 and 2
[5] = 2.5 uM, fold change in LMP1 transcript vs vehicle
[6] = read-out: Average LMP1 Fold Increase, Kem I cells, 2.5 uM, 48 hours, average of replicates 1 and 2
[7] = read-out: Replicate 1-LMP1 Fold Increase, Kem I cells, 2.5 uM, 48 hours, fold change in LMP1 transcript vs vehicle
[8] = read-out: Replicate 2-LMP1 Fold Increase, Kem I cells, 2.5 uM, 48 hours, fold change in LMP1 transcript vs vehicle

Row | SMILES | Average LMP1 Fold Increase [4] | Replicate 1-LMP1 Fold Increase [5] | Replicate 2-LMP1 Fold Increase [5] | fold induction at 2.5 µM [6] | fold induction at 2.5 µM [7] | fold induction at 2.5 µM [8] | also measured
1 | CNC(=O)c1ccccc1Nc1nc(Nc2ccc(N3CCOCC3)cc2OC)ncc1Cl [TAE226 (NVP-TAE226)] |  |  |  |  |  |  | Average LMP1 Fold Increase [1]: 1.35 fold; Replicate 1-LMP1 Fold Increase [2]: 1.38 fold; Replicate 2-LMP1 Fold Increase [3]: 1.31 fold
2 | O=C1[C@H](Cc2ccc(O)cc2)N2C(=O)CCN(C(=O)NCc3ccccc3)[C@H]2CN1Cc1cccc2ccccc12 [ICG-001] | 1.04 | 1.17 | 0.92 |  |  |  | 
3 | O=C(NOC[C@H](O)CO)c1ccc(F)c(F)c1Nc1ccc(I)cc1F [PD0325901] |  |  |  | 0.47 | 0.68 | 0.27 | 
4 | CCCCc1nc(Cl)c(CO)n1Cc1ccc(-c2ccccc2-c2nnn[n-]2)cc1.[K+] [Losartan Potassium (DuP 753)] | 0.35 | 0.21 | 0.48 |  |  |  | 
5 | Cc1c(C(=O)NN2CCCCC2)nn(-c2ccc(Cl)cc2Cl)c1-c1ccc(Cl)cc1 [Rimonabant] |  |  |  | 0.39 | 0.24 | 0.54 | 
6 | COc1cc2nc(N3CCN(C(=O)C4COc5ccccc5O4)CC3)nc(N)c2cc1OC (stereo not drawn) [Doxazosin Mesylate] |  |  |  | 0.81 | 0.67 | 0.95 | 
7 | Cc1cc(SCc2sc(-c3ccc(C(F)(F)F)c(F)c3)nc2C)ccc1OCC(=O)O [GW0742] | 0.76 | 0.53 | 0.99 |  |  |  | 
8 | COCC[n+]1c2c(n(Cc3cnccn3)c1C)C(=O)c1ccccc1C2=O.[Br-] [YM155 (Sepantronium Bromide)] |  |  |  |  |  |  | Average LMP1 Fold Increase [1]: 0.00 fold; Replicate 1-LMP1 Fold Increase [2]: 0.00 fold; Replicate 2-LMP1 Fold Increase [3]: 0.00 fold
9 | CCOC(=O)c1ccc(N2NC(=O)/C(=C/c3ccc([N+](=O)[O-])o3)C2=O)cc1 [PYR-41] | 0.49 | 0.50 | 0.49 |  |  |  | 
